This experiment deals with T1, MYLK2 (skMLCK) (Homo sapiens, UniProt Q9H1R3).
T1 construct: purchased Thermo Fisher Scientific (Life Technologies) SelectScreen
The experiment is described as follows: SelectScreen Z'LYTE. Format: biochemical. The essentials:
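SelectScreen broad panel; activity (Z'LYTE, Adapta) plus binding formats. ATP: Km app for CSF1R Z'LYTE; 10 for CAMK1 Adapta. Readout = % per kinase.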

SMILES strings stand for the structures.

T1 sequence (Q9H1R3 whole entry): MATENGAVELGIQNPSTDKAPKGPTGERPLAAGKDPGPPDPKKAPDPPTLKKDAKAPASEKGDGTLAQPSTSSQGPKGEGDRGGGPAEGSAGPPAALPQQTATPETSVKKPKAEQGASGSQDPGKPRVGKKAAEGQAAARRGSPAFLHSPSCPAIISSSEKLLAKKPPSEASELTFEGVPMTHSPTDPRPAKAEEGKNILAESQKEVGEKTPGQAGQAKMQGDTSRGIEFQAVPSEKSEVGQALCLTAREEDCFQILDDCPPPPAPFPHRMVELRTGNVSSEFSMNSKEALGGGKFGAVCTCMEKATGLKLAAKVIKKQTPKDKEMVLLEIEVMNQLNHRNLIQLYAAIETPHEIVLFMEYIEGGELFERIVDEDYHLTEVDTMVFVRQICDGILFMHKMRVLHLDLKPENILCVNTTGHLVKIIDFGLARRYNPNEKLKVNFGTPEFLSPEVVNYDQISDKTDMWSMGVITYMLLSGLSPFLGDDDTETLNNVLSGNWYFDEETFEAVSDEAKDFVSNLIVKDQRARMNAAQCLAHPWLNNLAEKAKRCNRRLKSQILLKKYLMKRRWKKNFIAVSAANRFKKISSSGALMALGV

One may read the inhibition as the change of the read-out against control, counted positive when it falls. Take `CN(C(=O)CN1CCOCC1)c1ccc2sc3c(-c4cccc5c(=O)cc(N6CC7CCC(C6)O7)oc45)cccc3c2c1` [NU5455]: the inhibition at 1 µM is -2.2%.

For the origin of these results see PMC6934184, “Selective DNA-PKcs inhibition extends the therapeutic index of localized radiotherapy and chemotherapy” (The Journal of Clinical Investigation, 2019).
